Results taken from patent publication US7462598B2, “Antimicrobial theta defensins, analogs thereof, and methods of use” (priority 2002, dated 2008).
Bridge positions count the residues as written; N and C are the ends. Peptide text beside a SMILES is read from it.

Experiments:
E. coli ML35 [1] = experiment: Membrane permeabilization assay (ONPG hydrolysis); assay type: cell-based, Escherichia coli; settings: rates at 1 μg/ml concentration of each peptide
Procedure: For the membrane permeabilization assay, the permeabilization of bacterial cytoplasmic membranes was determined by measuring hydrolysis of o-nitrophenyl-β-D-galactcpyranoside (ONPG) in E. coli ML35 (Sitaram et al., FEBS Lett. 303:265-268 (1992); Lehrer et al.,. J. Immunol. Methods 108:153-158 (1988)). Peptides dissolved in 5 μl of 0.01% acetic acid were two-fold serially diluted with 10 mM PIPES, pH 7.4, containing 3 mM ONPG, to final peptide concentrations of 0-8.0 μg/ml. Log-phase bacteria, prepared in PIPES buffer as described for the microbicidal assay (see Example I), were added to 1×10^6 CFU/ml final density in a final volume of 90 μl. ONPG hydrolysis was measured at 405 nm for 60 min using a SpectraMAX 190 plate reader and SOFTmaxPRO 3.1 (Molecular Devices Corp., CA). […]

S. aureus 502a = experiment: Cell-suspension microbicidal assay (MMC); assay type: cell-based, Staphylococcus aureus; settings: for MMC, S. aureus: lowest concentration that reduced cell viability by 99.9%, 10 mM PIPES, 5 mM glucose, pH 7.4, 2 h 37° C.; for fold reduction of staphylocidal potency relative to the peptide acid analog: carboxamide versus C-terminal acid of the same acyclic θ-defensin
Procedure: (§1) To test microbicidal activities, the activities of each peptide against S. aureus 502a, E. coli ML35, and C. albicans 16820 were assessed essentially as described in Example I with modifications to allow for simultaneous analysis of all twenty peptides. Briefly, two-fold serial dilutions of each peptide (in 0.01% acetic acid 0.062-8.0 μg/ml final concentrations) were mixed with 10 mM PIPES, pH 7.4, containing 5 mM glucose in sterile polystyrene 96-well plates (Corning, N.Y.). Aliquots of log-phase bacteria or yeast were added to a 2×10^6 CFU/ml final density as determined by A620. After 2 h incubation at 37° C., 15 μl of the incubation mixture was removed and serially diluted ten-fold from 1:10 to 1:10^6 in trypticase soy broth (bacteria) or Sabaraud dextrose broth (C. albicans). The diluted cell suspensions were grown 24-48 h at 37° C. until cell pellets were visible. Microbicidal activity was determined as absence of growth and was correlated to CFU/ml in control experiments where activity was determined in parallel by colony counting (see Example I). Absence of growth at the 1:10^3 dilution is equivalent to a 3-log reduction in microbial viability.
(§2) The microbicidal activities of each peptide against E. coli ML35, S. aureus 502a, and C. albicans 16820 were determined with cell-suspension microbicidal assays in 96-well plates (see Example II). Briefly, log-phase cells (2×10^6 CFU/ml final) were incubated with increasing concentrations of peptides (0-8 μg/ml final) in 50 μl of 10 mM PIPES, 5 mM glucose, pH 7.4, for 2 h at 37° C. Incubation mixtures were diluted 1:10 to 1:10^6 with trypticase-soy broth (bacteria) or Sabaraud dextrose broth (fungi) and incubated at 37° C. for 24-48 h until cell pellets were visible. Microbicidal activities (confirmed in control experiments as described in Example II) were determined as the absence of a cell pellet in the various dilutions. Peptide concentrations that caused ≧99.9% killing (absence of a cell pellet at 1:10^3 dilution) were taken as the minimum microbicidal concentrations (MMC).

[2] = tested on: S. aureus 502a, E. coli ML35, and C. albicans 16820; experiment: Cell-suspension microbicidal assay, statements across the test organisms (lowest MMC, overall ranges); assay type: cell-based; settings: peptide concentration that kill 99.9% of either S. aureus, E. coli, or C. albicans; lowest MMC value
Procedure: as §1, §2
(§3) A selectivity index (SI=H/M) was calculated as a ratio of a peptide concentration (μg/ml) that causes 3% hemolysis (H) obtained from a dose-dependent hemolysis plot over 0.3 to 3 μg/ml of each peptide in PBS and the lowest MMC value (M) for any of the three test microorganisms (see Example II; Table 2).

E. coli ML35 [3] = experiment: Cell-suspension microbicidal assay (MMC); assay type: cell-based, Escherichia coli; settings: for MMC, E. coli: lowest concentration that reduced cell viability by 99.9%, 10 mM PIPES, 5 mM glucose, pH 7.4, 2 h 37° C.; for fold higher potency against E. coli than the peptide acid analog: carboxamide versus C-terminal acid of the same acyclic θ-defensin
Procedure: as §1, §2

C. albicans 16820 = experiment: Cell-suspension microbicidal assay (MMC); assay type: cell-based, Candida albicans; settings: for MMC, C. albicans: lowest concentration that reduced cell viability by 99.9%, 10 mM PIPES, 5 mM glucose, pH 7.4, 2 h 37° C.; for fold higher potency against C. albicans than the peptide acid analog: carboxamide versus C-terminal acid of the same acyclic θ-defensin
Procedure: as §1, §2

human erythrocytes = experiment: Hemolysis assay; assay type: cell-based
Procedure: For the hemolysis assay, the hemolytic activity of each peptide was determined by the method of Tam et al. (Tam et al., Eur. J. Biochem. 267:3289-3300 (2000)). Blood was obtained from a healthy donor in accordance to a protocol approved by the Institutional Review Board. Normal human serum was prepared from the same individual and stored at −20° C. Red blood cells (RBC) were prepared from blood collected in EDTA. RBC were harvested at 234×g for 10 min, 22° C., washed four times with 10 mM sodium phosphate, 150 mM NaCl, pH 7.4 (PBS), containing 4 mM EDTA and resuspended in PBS without EDTA. Peptides dissolved in 10 μl 0.01% HOAc were diluted with PBS to final concentrations of 0.3-100 μg/ml. RBC were added to a 2% final density in 100 μl. Incubation mixtures were also prepared with 10% serum. After 1 h incubation at 37° C., the cell suspensions were centrifuged at 234×g for 10 min, 22° C. Fifty-μl samples of the supernatants were removed, and the absorbance at 405 nm (A) was measured. Hemolytic activity of each peptide was calculated relative to lysis by 1% NP-40 using the following formula:
as §3

Compound | ONPG hydrolysis (E. coli ML35 [1]) | fold lower staphylocidal activity than 3cys 3:1 PG-1-OH (S. aureus 502a; from MMC, Table 2) | MMC, S. aureus (S. aureus 502a) [µg/mL] | M [2] [µg/mL] | MMC, E. coli (E. coli ML35 [3]) [µg/mL] | fold lower candidacidal activity than 3cys 3:1 PG-1-OH (C. albicans 16820; from MMC, Table 2) | MMC, C. albicans (C. albicans 16820) [µg/mL] | fold lower staphylocidal potency than native PG-1 (S. aureus 502a; from MMC, Table 2) [fold] | fold lower candidacidal potency than native PG-1 (C. albicans 16820; from MMC, Table 2) [fold] | hemolysis (human erythrocytes) | H (human erythrocytes; peptide concentration that causes 3% hemolysis, calculated from dose-dependent hemolysis plot over 0.3-3 μg/ml in PBS) [µg/mL] | fold reduction of staphylocidal potency relative to the peptide acid analog (S. aureus 502a) | fold higher potency against E. coli than the peptide acid analog (E. coli ML35 [3]) | fold higher potency against C. albicans than the peptide acid analog (C. albicans 16820)
CC(C)[C@@H]1NC(=O)[C@@H]2CSSC[C@H](NC(=O)[C@H](CCCNC(=N)N)NC(=O)[C@@H](NC(=O)CNC(=O)CN)CSSC[C@@H](C(=O)N[C@@H](CCCNC(=N)N)C(=O)N[C@@H](CCCNC(=N)N)C(=O)O)NC1=O)C(=O)N[C@@H](Cc1ccc(O)cc1)C(=O)N[C@H]1CSSC[C@H](NC(=O)[C@H](Cc3ccccc3)NC(=O)[C@H](CCCNC(=N)N)NC(=O)[C@H](CCCNC(=N)N)NC(=O)[C@H](CCCNC(=N)N)NC1=O)C(=O)N[C@@H](C(C)C)C(=O)N2 [3cys 2:2 PG-1-OH] (H-GGCRCYCRRRFCVCVCRR-OH; disulfide 3-16, 5-14, 7-12; N-terminus assumed) | 13.0 (A405/sec) · 10^−5 | 2-4 fold | 2.0 | 1 | 1.0 | 2-4 fold | 4.0 | – | – | – | – | – | – | –
CC(C)[C@@H]1NC(=O)[C@@H]2CSSC[C@H](NC(=O)[C@H](CCCNC(=N)N)NC(=O)[C@@H](NC(=O)CNC(=O)CNC(=O)[C@@H](N)CCCNC(=N)N)CSSC[C@@H](C(=O)N[C@@H](CCCNC(=N)N)C(N)=O)NC1=O)C(=O)N[C@@H](Cc1ccc(O)cc1)C(=O)N[C@H]1CSSC[C@H](NC(=O)[C@H](Cc3ccccc3)NC(=O)[C@H](CCCNC(=N)N)NC(=O)[C@H](CCCNC(=N)N)NC(=O)[C@H](CCCNC(=N)N)NC1=O)C(=O)N[C@@H](C(C)C)C(=O)N2 [3cys 3:1 PG-1-NH] (H-RGGCRCYCRRRFCVCVCR-NH2; disulfide 4-17, 6-15, 8-13; N-terminus assumed) | 12.3 (A405/sec) · 10^−5 | – | 2.0 | 1.5 | 1.5 | – | 4.0 | 5 | 5 | – | – | – | – | –
CC(C)[C@@H]1NC(=O)[C@@H]2CSSC[C@H](NC(=O)[C@H](CCCNC(=N)N)NC(=O)[C@@H](NC(=O)CNC(=O)CNC(=O)[C@@H](N)CCCNC(=N)N)CSSC[C@@H](C(=O)N[C@@H](CCCNC(=N)N)C(=O)O)NC1=O)C(=O)N[C@@H](Cc1ccc(O)cc1)C(=O)N[C@H]1CSSC[C@H](NC(=O)[C@H](Cc3ccccc3)NC(=O)[C@H](CCCNC(=N)N)NC(=O)[C@H](CCCNC(=N)N)NC(=O)[C@H](CCCNC(=N)N)NC1=O)C(=O)N[C@@H](C(C)C)C(=O)N2 [3cys 3:1 PG-1-OH] (H-RGGCRCYCRRRFCVCVCR-OH; disulfide 4-17, 6-15, 8-13; N-terminus assumed) | 11.0 (A405/sec) · 10^−5 | – | 0.5 | 0.5 | 1.5 | – | 1.5 | – | – | – | – | – | – | –
CC(C)[C@@H]1NC(=O)[C@@H]2CSSC[C@H](NC(=O)[C@H](CCCNC(=N)N)NC(=O)[C@@H]3CSSC[C@H](NC1=O)C(=O)N[C@@H](CCCNC(=N)N)C(=O)N[C@@H](CCCNC(=N)N)C(=O)NCC(=O)NCC(=O)N3)C(=O)N[C@@H](Cc1ccc(O)cc1)C(=O)N[C@H]1CSSC[C@H](NC(=O)[C@H](Cc3ccccc3)NC(=O)[C@H](CCCNC(=N)N)NC(=O)[C@H](CCCNC(=N)N)NC(=O)[C@H](CCCNC(=N)N)NC1=O)C(=O)N[C@@H](C(C)C)C(=O)N2 [3cys cPG-1] (cyclo(GGCRCYCRRRFCVCVCRR); disulfide 3-16, 5-14, 7-12) | 10.7 (A405/sec) · 10^−5 | – | 0.5 | 0.5 | 1.3 | – | 2.5 | – | 3 | 5-6% | – | – | – | –
CC(C)C[C@H](NC(=O)[C@H](CCCNC(=N)N)NC(=O)CNC(=O)CN)C(=O)N[C@H]1CSSC[C@@H](C(=O)N[C@H](C(=O)NCC(=O)N[C@@H](CCCNC(=N)N)C(=O)N[C@@H](CCCNC(=N)N)C(=O)O)C(C)C)NC(=O)[C@H](C(C)C)NC(=O)[C@@H]2CSSC[C@H](NC(=O)[C@H](Cc3ccc(O)cc3)NC1=O)C(=O)N[C@@H](CCCNC(=N)N)C(=O)N[C@@H](CCCNC(=N)N)C(=O)N[C@@H](CCCNC(=N)N)C(=O)N[C@@H](Cc1ccccc1)C(=O)N2 [4:4 PG-1-OH] (H-GGRLCYCRRRFCVCVGRR-OH; disulfide 5-14, 7-12; N-terminus assumed) | 12.1 (A405/sec) · 10^−5 | – | 1.0 | 1 | 1.0 | – | 2.5 | – | – | – | – | – | – | –
CC[C@H](C)[C@@H]1NC(=O)[C@@H]2CSSC[C@H](NC(=O)[C@H](CCCNC(=N)N)NC(=O)[C@@H](NC(=O)[C@H](Cc3ccccc3)NC(=O)CN)CSSC[C@@H](C(=O)N[C@H](C(=O)N[C@@H](CCCNC(=N)N)C(N)=O)[C@@H](C)O)NC1=O)C(=O)N[C@@H](CC(C)C)C(=O)N[C@H]1CSSC[C@H](NC(=O)[C@H](C(C)C)NC(=O)CNC(=O)[C@H](CCCNC(=N)N)NC(=O)[C@H](CCCNC(=N)N)NC1=O)C(=O)N[C@@H](CCCNC(=N)N)C(=O)N2 [aRTD-1-NH] (H-GFCRCLCRRGVCRCICTR-NH2; disulfide 3-16, 5-14, 7-12; N-terminus assumed) | 8.8 (A405/sec) · 10^−5 | – | 5.0 | 1 | 2.0 | – | 1.0 | – | – | – | 8.8 | no effect | 4 fold | 4 fold
CC(C)C[C@@H]1NC(=O)[C@@H]2CSSC[C@H](NC(=O)[C@H](CCCNC(=N)N)NC(=O)[C@@H](NC(=O)[C@@H](NC(=O)CN)C(C)C)CSSC[C@@H](C(=O)N[C@@H](CCCNC(=N)N)C(=O)N[C@@H](CCCNC(=N)N)C(N)=O)NC1=O)C(=O)N[C@@H](CC(C)C)C(=O)N[C@H]1CSSC[C@H](NC(=O)[C@H](C(C)C)NC(=O)CNC(=O)[C@H](CCCNC(=N)N)NC(=O)[C@H](CCCNC(=N)N)NC1=O)C(=O)N[C@@H](CCCNC(=N)N)C(=O)N2 [aRTD-3-NH] (H-GVCRCLCRRGVCRCLCRR-NH2; disulfide 3-16, 5-14, 7-12; N-terminus assumed) | 9.7 (A405/sec) · 10^−5 | – | 4.5 | 0.75 | 1.0 | – | 0.8 | – | – | – | – | 3 fold | 2- to 4 fold | 2- to 4 fold
